Consider nine compounds from US10626081B2, “Farnesoid X receptor agonists and uses thereof” (Metacrine, Inc., priority 2015, dated 2020).

pEC50: −log10 of the molar value.

Test [1] concerns the target T1, FXR (Homo sapiens, UniProt Q96RI1).
T1 construct: expressed in transfected cells; host or cells: CV-1 cells
T1 sequence (Q96RI1 1-486): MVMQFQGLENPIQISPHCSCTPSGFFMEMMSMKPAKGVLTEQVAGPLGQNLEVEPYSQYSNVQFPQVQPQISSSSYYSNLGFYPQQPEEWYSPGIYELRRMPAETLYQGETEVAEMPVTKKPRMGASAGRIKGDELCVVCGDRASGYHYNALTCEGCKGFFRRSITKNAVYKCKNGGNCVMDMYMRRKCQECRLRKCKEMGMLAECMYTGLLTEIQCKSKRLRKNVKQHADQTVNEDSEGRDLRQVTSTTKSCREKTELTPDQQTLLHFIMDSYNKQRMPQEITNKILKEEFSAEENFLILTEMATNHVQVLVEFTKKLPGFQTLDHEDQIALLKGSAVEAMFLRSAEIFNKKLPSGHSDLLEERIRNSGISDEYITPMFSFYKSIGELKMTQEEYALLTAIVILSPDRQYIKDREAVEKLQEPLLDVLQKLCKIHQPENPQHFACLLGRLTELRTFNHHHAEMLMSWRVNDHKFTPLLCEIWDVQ
T1 sequence (P19793 1-462 partner): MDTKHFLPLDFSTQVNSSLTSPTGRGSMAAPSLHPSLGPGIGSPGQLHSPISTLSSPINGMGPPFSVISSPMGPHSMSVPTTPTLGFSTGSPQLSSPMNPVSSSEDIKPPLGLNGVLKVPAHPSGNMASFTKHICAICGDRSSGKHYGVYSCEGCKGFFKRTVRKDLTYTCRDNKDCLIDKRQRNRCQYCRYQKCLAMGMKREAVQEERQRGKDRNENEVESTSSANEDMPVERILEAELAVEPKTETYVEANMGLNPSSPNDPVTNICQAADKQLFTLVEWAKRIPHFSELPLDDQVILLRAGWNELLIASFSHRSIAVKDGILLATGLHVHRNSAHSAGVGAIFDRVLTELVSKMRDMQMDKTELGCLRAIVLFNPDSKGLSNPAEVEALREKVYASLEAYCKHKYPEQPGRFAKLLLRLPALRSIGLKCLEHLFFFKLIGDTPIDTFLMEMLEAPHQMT
The test can be described thus: In Vitro FXR Assay (PGL3): luciferase reporter in transfected CV-1 cells. The class given is cell-based. As to conditions: CV-1 cells transfected with hFXR, hRXR, PGL3-ECRE*6-luc; 18 h incubation; luminescence. Put shortly: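 CV-1 cells in charcoal-stripped FBS were transiently co-transfected with full-length human FXR, RXR, an ECRE×6-luciferase reporter, β-gal and YFP plasmids. Transfected cells were reseeded onto half-log compound dilutions and incubated 18 h. Luciferase luminescence was read after lysis, and EC50 was determined.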
In general terms: In a reporter assay the amount or activity of a reporter protein is the signal.

In test [2] the target is T1, FXR. Briefly: In Vitro FXR Assay (TK): TK-ECRE-luc reporter in transfected CV-1 cells. In kind it is cell-based. As to conditions: CV-1 cells transfected with hFXR, hRXR, 18 h incubation, luminescence. Put shortly: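 CV-1 cells in charcoal-stripped FBS medium were transiently cotransfected with hFXR, hRXR, TK-ECRE-luc and pCMX-YFP plasmids. After 18 h, compounds serially diluted in DMSO were added for 18 h at 37 °C, 5% CO2, then cells were lysed and luminescence read.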

The pEC50 is the EC50 on a negative log10 scale, so that one unit is a factor of ten. Read a low pEC50 as a large EC50. With `COC(=O)/C=C/c1cccc(N(C(=O)C2CCCCC2)C(C)c2ccc(-c3ccc(N(C)C)cc3)cc2)c1` (stereo not drawn) [compound 46, (E)-Methyl 3-(3-(N-(1-(4′-(dimethylamino)-[1,1′-biphenyl]-4-yl)ethyl)cyclohexanecarboxamido)phenyl) acrylate], on FXR [1], the “Cmpd/Fex (ratio of the EC50 for the test compound relative to the EC50 of the Fexaramine control)” value is “++ (‘++’ means Cmpd/Fex > 10 & < 100)”. The compound also gave a pEC50 at FXR [2] of 5.00 to 6.00.
The matching figures for `COC(=O)/C=C/c1cccc(N(Cc2ccc(-c3cccc(C(C)C)c3)cc2)C(=O)C2CCCCC2)c1` [compound 47, (E)-Methyl 3-(3-(N-((3′-isopropyl-[1,1′-biphenyl]-4-yl)methyl)cyclohexanecarboxamido)phenyl) acrylate]: “+ (‘+’ means Cmpd/Fex > 100)” and below 5.00.
The like results for `COC(=O)/C=C/c1cccc(N(Cc2ccc(-c3ccc(N4CCCC4)cc3)cc2)C(=O)C2CCCCC2)c1` [compound 48, (E)-Methyl 3-(3-(N-((4′-(pyrrolidin-1-yl)-[1,1′-biphenyl]-4-yl)methyl)cyclohexanecarboxamido)phenyl) acrylate] were, in that order, “+++ (‘+++’ means Cmpd/Fex < 10)” and 5.00 to 6.00.
With `COC(=O)/C=C/c1cccc(N(Cc2ccc(-c3ccc4[nH]ncc4c3)cc2)C(=O)C2CCCCC2)c1` [compound 49, (E)-Methyl 3-(3-(N-(4-(1H-indazol-5-yl)benzyl)cyclohexanecarboxamido)phenyl) acrylate], the “Cmpd/Fex (ratio of the EC50 for the test compound relative to the EC50 of the Fexaramine control)” value at FXR [1] is listed as “+ (‘+’ means Cmpd/Fex > 100)”. In addition, on FXR [2], the pEC50 is 5.00 to 6.00.
Regarding `COC(=O)/C=C/c1cccc(N(Cc2ccc(-c3ccc(N(C)C)cc3)c(F)c2)C(=O)C2CCCCC2)c1` [compound 50, (E)-methyl 3-(3-(N-((4′-(dimethylamino)-2-fluoro-[1,1′-biphenyl]-4-yl)methyl)cyclohexanecarboxamido)phenyl) acrylate], the “Cmpd/Fex (ratio of the EC50 for the test compound relative to the EC50 of the Fexaramine control)” value on FXR [1] was “+++ (‘+++’ means Cmpd/Fex < 10)”. For the same compound, the pEC50 at FXR [2] is at least 6.00.
`COC(=O)/C=C/c1cccc(N(Cc2ccc(-c3ccc(N(C)C)cc3)cc2F)C(=O)C2CCCCC2)c1` [compound 51, (E)-methyl 3-(3-(N-((4′-(dimethylamino)-3-fluoro-[1,1′-biphenyl]-4-yl)methyl)cyclohexanecarboxamido)phenyl)acrylate]: the “Cmpd/Fex (ratio of the EC50 for the test compound relative to the EC50 of the Fexaramine control)” value at FXR [1] is “+++ (‘+++’ means Cmpd/Fex < 10)”. Moreover, at FXR [2], the pEC50 is at least 6.00.
In the case of `COC(=O)/C=C/c1cccc(N(Cc2ccc(-c3ccc(OC)c(C)c3)cc2)C(=O)C2CCCCC2)c1` [compound 52, (E)-Methyl 3-(3-(N-((4′-methoxy-3′-methyl-[1,1′-biphenyl]-4-yl)methyl)cyclohexanecarboxamido)phenyl) acrylate], on FXR [1], the “Cmpd/Fex (ratio of the EC50 for the test compound relative to the EC50 of the Fexaramine control)” value was “+++ (‘+++’ means Cmpd/Fex < 10)”. Further, at FXR [2], the pEC50 was at least 6.00.
For the compound `COC(=O)/C=C/c1cccc(N(Cc2ccc(-c3ccc(N(C)C)cc3)c(C)c2)C(=O)C2CCCCC2)c1` [compound 53, (E)-Methyl 3-(3-(N-((4′-(dimethylamino)-2-methyl-[1,1′-biphenyl]-4-yl)methyl)cyclohexanecarboxamido)phenyl) acrylate], the “Cmpd/Fex (ratio of the EC50 for the test compound relative to the EC50 of the Fexaramine control)” value at FXR [1] is “+++ (‘+++’ means Cmpd/Fex < 10)”. Moreover, the pEC50 at FXR [2] was 5.00 to 6.00.
As to `COC(=O)/C=C/c1cccc(N(Cc2ccc(-c3ccc(N(C)C)cc3)cc2C)C(=O)C2CCCCC2)c1` [compound 54, (E)-Methyl 3-(3-(N-((4′-(dimethylamino)-3-methyl-[1,1′-biphenyl]-4-yl)methyl)cyclohexanecarboxamido)phenyl) acrylate], the “Cmpd/Fex (ratio of the EC50 for the test compound relative to the EC50 of the Fexaramine control)” value on FXR [1] is given as “+++ (‘+++’ means Cmpd/Fex < 10)”. For the same compound, the negative-log EC50 (pEC50) on FXR [2] was at least 6.00.
